The source of these data is publication PMC7377239, “Cardiovascular Effects of Polychlorinated Biphenyls and Their Major Metabolites” (Environmental Health Perspectives, 2020).

Structures can show the parent of a compound that is named as a salt. Where two headings read alike, the source gives them in different places.

One experiment relates to HUVECs. Description: High-content imaging cytotoxicity in HUVECs, 24 h. As to conditions: Homo sapiens, HUVEC, 24 h, HUVEC, 24 hr. It is filed as cell-based, human. The method, boiled down:
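Read-out: multiwavelength high-content imaging of Hoechst 33342, MitoTracker Orange and calcein AM after 24 h compound exposure of confluent HUVEC monolayers. POD values were set using a one-SD cutoff from vehicle (0.5% DMSO) means; with no concentration–response, 100μM was assigned as no observable adverse effect level.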

The subject of experiment [1] is iCell endothelial cells (human iPSC-derived ECs). Description: High-content imaging cytotoxicity in iCell endothelial cells, 24 h. As to conditions: Homo sapiens, Endothelial cell, endothelial cells (endo), 24 hr. In kind it is cell-based. In a few lines:
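Readouts were vehicle-normalised and fitted to a four-parameter logistic model. POD was set at one SD beyond 0.5% DMSO control means, and 100 µM was assigned when no response was seen. Cells were monolayers of iCell endothelial cells imaged after 24 h compound exposure using nuclear, mitochondrial and calcein dyes.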

[2] abbreviates: cyto, read-out: POD huvec.cyto.24hr.
[3] abbreviates: mito, read-out: POD huvec.mito.24hr.
[4] abbreviates: mitoint, read-out: POD huvec.mitoint.24hr.
[5] abbreviates: nma, read-out: POD huvec.nma.24hr.
[6] abbreviates: tc, read-out: POD huvec.tc.24hr.
The mark [7] stands for this setting: cyto, read-out: POD endo.cyto.24hr.
Setting [8] is: mito, read-out: POD endo.mito.24hr.
Setting [9] is: mitoint, read-out: POD endo.mitoint.24hr.
Setting [10] is: nma, read-out: POD endo.nma.24hr.

Take `COc1ccc(-c2cccc(Cl)c2)cc1Cl` [4-OMe-PCB 11, 4-methoxy-3,3′-dichlorobiphenyl]: the minimal effective concentration with HUVECs (setting [2]) came out at 7.59 µM; in the experiment on HUVECs (setting [3]), 6.19 µM; in the experiment on HUVECs (setting [4]) it was 16 µM; in the experiment on HUVECs (setting [5]), 6.39 µM; in the experiment on HUVECs (setting [6]), 7.59 µM; in experiment [1] (setting [7]) it was 100 µM. Moreover, the minimal effective concentration came out at 100 µM in experiment [1] (setting [8]); 100 µM in experiment [1] (setting [9]); 100 µM in experiment [1] (setting [10]); 100 µM in experiment [1] (tc, read-out: POD endo.tc.24hr).
Consider `COc1cc(Cl)c(-c2cc(Cl)ccc2Cl)cc1Cl` [4-OMe-PCB 52, 4-methoxy-2,2′,5,5′-tetrachlorobiphenyl], for which the minimal effective concentration is 0.78 µM with HUVECs (setting [2]); 0.55 µM with HUVECs (setting [3]); 2.69 µM with HUVECs (setting [4]); 2.36 µM in the experiment with HUVECs (setting [5]); 0.78 µM in the experiment on HUVECs (setting [6]); 43.5 µM in experiment [1] (setting [7]). The minimal effective concentration in experiment [1] (setting [8]) stood at 43.5 µM; in experiment [1] (setting [9]), 100 µM; in experiment [1] (setting [10]), 56.1 µM; in experiment [1] (tc, read-out: POD endo.tc.24hr), 40.3 µM.
Consider `O=S(=O)(O)Oc1ccc(-c2cccc(Cl)c2)cc1Cl` [4-PCB 11 sulfate], for which the minimal effective concentration in the experiment on HUVECs (setting [2]) was 48.8 µM; in the experiment with HUVECs (setting [3]), 45.1 µM; in the experiment on HUVECs (setting [4]) it was 10.8 µM; with HUVECs (setting [5]), 2.98 µM; in the experiment with HUVECs (setting [6]), 48.8 µM; in experiment [1] (setting [7]) it was 100 µM. Moreover, the minimal effective concentration was 100 µM in experiment [1] (setting [8]); 100 µM in experiment [1] (setting [9]); 100 µM in experiment [1] (setting [10]); 100 µM in experiment [1] (tc, read-out: POD endo.tc.24hr).
Turning to `O=S(=O)(O)Oc1cc(Cl)c(-c2cc(Cl)ccc2Cl)cc1Cl` [4-PCB 52 sulfate], the minimal effective concentration in the experiment with HUVECs (setting [2]) came out at 5.38 µM; with HUVECs (setting [3]) it was 3.31 µM; in the experiment with HUVECs (setting [4]), 61.2 µM; with HUVECs (setting [5]) it was 33.9 µM; in the experiment on HUVECs (setting [6]), 5.38 µM; in experiment [1] (setting [7]) it was 41.2 µM. Further, the minimal effective concentration in experiment [1] (setting [8]) turned out to be 41.2 µM; in experiment [1] (setting [9]), 100 µM; in experiment [1] (setting [10]), 100 µM; in experiment [1] (tc, read-out: POD endo.tc.24hr), 50.3 µM.
